# In patent US8614054B2, “Laser scanning cytometry mediated analysis of therapeutic efficacy in tumors” (Board of Regents, The University of Texas System, priority 2000, dated 2013):
# What was measured:
# tumor vasculature [1] = assay: LSC-mediated blood vessel contouring (blood vessel density) of patient biopsies pre and post-treatment with endostatin; assay type: in vivo, human
# Experimental: (§1) Blood vessel density is defined herein as the number of blood vessels as determined from analyzing the fluorescence emission of markers bound to the endothelial cells divided by the total number of cells in the tumor as determined from analyzing the fluorescence emission of markers bound to the cell nuclei. Endothelial cell density is measured because it is a more sensitive marker. Breaks in fluorescence of the endothelial cell stain will delimitate individual blood vessels.
# (§2) After the scan is complete, the gates are set on the scattergram so that the collected data can be analyzed. Relocation of a cell is used to visualize which cells are positive, i.e. CD31 and/or TUNEL positive. Visualization allows the gate on the scattergram to be moved so that the positive cells fall in the appropriate quadrant. The data file can be replayed to obtain the number of cells in each quadrant that are representative of the total percent of all cells counted. […] For BVD, the instruments software is set to contour on CD31 fluorescence. In Examples 2-7, this is by selecting the long red filter during the setup. The instrument then scans the same area but counts the number of blood vessels, i.e. a single vessel is counted by contiguous fluorescent light. […] BVD can be calculated for that sample by dividing the blood vessel count by the total number of tumor endothelial cells. Endothelial cell density is determined by dividing the total number of endothelial cells by the total number of tumor cells.
# Tumor specimens or patient biopsies are obtained prior to and several time points post-treatment such as 1, 3, and 7 days or more. Tissue sections are stained using an immunofluorescent double-labeling technique which permits the simultaneous detection of endothelial cells and fluorescent markers of apoptosis such as TUNEL or caspase activity. The tissue sections are scanned by the LSC and cell data is collected by the instrument's software. […] The contouring is based on the fluorescence of the endothelial cell markers (CD31 and/or CD34). […]
# endothelial cells = assay: LSC quantification of endothelial cell density (ED) in tumor biopsies; assay type: in vivo, human; conditions: following 56 days of treatment
# Experimental: FIGS. 17A-B—FIG. 17A Is a diagram showing the concept of quantifying endothelial cells in a tumor biopsy using the LSC. The LSC is used to count endothelial and tumor cells independently in a biopsy. Endothelial cell density (ED) is calculated by dividing the total number of endothelial cells by the total number of tumor cells. FIG. 17B Graph showing that Endostatin decreased ED 1.3 fold following 56 days of treatment.
# as §2, with “In Examples 2-7, this is by selecting the long red filter during the setup.” left out
# tumor cells = assay: LSC analysis of tumor cell death in patient biopsies pre and post-treatment with endostatin; assay type: in vivo, human; conditions: for change in tumor cell death: pre vs post-treatment
# Source text: Tumor specimens or patient biopsies are obtained prior to and several time points post-treatment such as 1, 3, and 7 days or more. Tissue sections are stained using an immunofluorescent double-labeling technique which permits the simultaneous detection of endothelial cells and fluorescent markers of apoptosis such as TUNEL or caspase activity. The tissue sections are scanned by the LSC and cell data is collected by the instrument's software. For the first scan, the Wincyte software is setup by the user to contour on the cell nuclei based on propidium iodide staining. Contouring on the cell nuclei provides the total cell number of the tissue specimen and creates a ‘tissue map’ which permits selective gating of the tumor cells. In addition, contouring on the cell nuclei permits the software to identify endothelial cells (based on CD31 and/or CD34, Pharmingen, Inc., fluorescent staining) and/or TUNEL positive cells (based on fluorescent TUNEL, Promega, Inc.). […] A substantial increase in endothelial cell death post-treatment will indicate drug efficacy to induce apoptosis in tumor endothelial cells. Subsequent to endothelial cell death is the decay of the tumor vasculature. For the second scan, the Wincyte software is setup by the user to contour on the blood vessels of the tumor. The contouring is based on the fluorescence of the endothelial cell markers (CD31 and/or CD34). […] If the treatment targets the tumor vasculature, the number of blood vessels in the tumor will be dramatically lower post-treatment.
# Biopsies at different tumor sites were obtained from each of the five patients prior to and after treatment. The biopsies were stained with TUNEL and cy5 labeled antibody to CD31/[…]. […] FIGS. 8-9 represent LSC data from two of the patients. […] The data obtained from contouring on the blood vessels is shown in FIG. 12 where a representative image of blood vessel staining (CD31) is shown.
# This gives a difference of 0.23. The 95% CI for this difference is (0.00,0.47), p=0.050 and is significant.
# tumor endothelial cells [2] = assay: LSC analysis of tumor endothelial cell death in patient biopsies pre and post-treatment with endostatin; assay type: in vivo, human
# Source text: (§3) Tumor specimens or patient biopsies are obtained prior to and several time points post-treatment such as 1, 3, and 7 days or more. Tissue sections are stained using an immunofluorescent double-labeling technique which permits the simultaneous detection of endothelial cells and fluorescent markers of apoptosis such as TUNEL or caspase activity. The tissue sections are scanned by the LSC and cell data is collected by the instrument's software. For the first scan, the Wincyte software is setup by the user to contour on the cell nuclei based on propidium iodide staining. Contouring on the cell nuclei provides the total cell number of the tissue specimen and creates a ‘tissue map’ which permits selective gating of the tumor cells. In addition, contouring on the cell nuclei permits the software to identify endothelial cells (based on CD31 and/or CD34, Pharmingen, Inc., fluorescent staining) and/or TUNEL positive cells (based on fluorescent TUNEL, Promega, Inc.). […] A substantial increase in endothelial cell death post-treatment will indicate drug efficacy to induce apoptosis in tumor endothelial cells. Subsequent to endothelial cell death is the decay of the tumor vasculature. For the second scan, the Wincyte software is setup by the user to contour on the blood vessels of the tumor. The contouring is based on the fluorescence of the endothelial cell markers (CD31 and/or CD34). […]
# tumor vasculature [3] = assay: LSC-mediated blood vessel contouring (blood vessel density) in mouse tumors; assay type: in vivo; conditions: treated mouse tumor, Cy5 label; untreated mouse tumor 52%
# Experimental: as §1
# as §2, with “TUNEL positive. […] The data” for “TUNEL positive. Visualization allows the gate on the scattergram to be moved so that the positive cells fall in the appropriate quadrant. The data”, “CD31 fluorescence. […] The instrument” for “CD31 fluorescence. In Examples 2-7, this is by selecting the long red filter during the setup. The instrument”, “tumor cells. […]” for “tumor cells.”
# tumor endothelial cells [4] = assay: LSC analysis of endothelial cell death (CD31/TUNEL double staining) in treated mouse tumors; assay type: in vivo; conditions: mouse liver metastasis model, treated vs untreated tumors
# Source text: as §3
# breast tumor cells = conditions: breast cancer patients, following neoadjuvant chemotherapy (FIG. 14)
# Experimental: FIGS. 14A-E—Biopsies taken from breast cancer patients pre and post-treatment (24, 48, 66 hours) following neoadjuvant chemotherapy were processed and stained for fluorescent TUNEL. The number of TUNEL positive cells were counted and results are represented as a percent of total cells counted. FIGS. 14F-H—Biopsies taken from breast cancer patients pre, 24, and 48 hours following neoadjuvant chemotherapy were processed and stained for fluorescent TUNEL. FIG. 14F—Representative image of tumor cell apoptosis in a human breast tumor biopsy pre- and post-chemotherapy (48 hrs.) before it is scanned by the LSC. […] FIG. 14G—Representative image of tumor cell apoptosis in a human breast tumor biopsy pre- and post-chemotherapy (48 hrs.) before it is scanned by the LSC. […] FIG. 14H—Bar graph showing the percent change in apoptotic tumor cells post-chemotherapy (24 & 48 hrs.).
compound,measurement,setting,value
endostatin,effect of dosing on blood vessel density,tumor vasculature [1]; <60 mg vs >60 mg,not significant
same,blood vessel density,"tumor vasculature [1]; Patient 1, treated for two months (FIG. 13)",dramatic decrease
same,BVD post-treatment,"tumor vasculature [1]; patient biopsy post-treatment with endostatin, pre-treatment BVD 53%",28%
same,decrease of endothelial cell density (ED),endothelial cells,1.3 fold
same,difference in change of tumor cell death between doses,"tumor cells; >60 mg vs <60 mg, 95% CI (0.00,0.47), p=0.050, significant",0.23
same,change in tumor cell death,tumor cells; dose of <60 mg,0.02
same,change in tumor cell death,tumor cells; dose of >60 mg,0.26
same,apoptotic tumor cells,"tumor cells; patients treated for two months, pre vs post-treatment (FIG. 10)",two out of four patients had a dramatic increase
same,effect of dosing on tumor endothelial cell death,tumor endothelial cells [2]; <60 mg vs >60 mg,not significant
same,apoptotic endothelial cells,"tumor endothelial cells [2]; patients treated for two months, pre vs post-treatment (FIG. 11)",two out of four patients had a dramatic increase
Cc1[nH]c(/C=C2\C(=O)Nc3ccccc32)c(C)c1CCC(=O)O [SU6668],blood vessel density,tumor vasculature [3],55%
same,endothelial cell death,tumor endothelial cells [4],significant endothelial cell death
CC(=O)O[C@H]1C(=O)[C@@]2(C)[C@H]([C@H](OC(=O)c3ccccc3)[C@]3(O)C[C@H](OC(=O)[C@H](O)[C@@H](NC(=O)c4ccccc4)c4ccccc4)C(C)=C1C3(C)C)[C@]1(OC(C)=O)CO[C@@H]1C[C@@H]2O [taxol],number of apoptotic tumor cells,breast tumor cells,dramatic increase
